Earlier results in US11389549B2, “Diagnosis-treatment integrated nano-probe for 19F-MR/fluorescence multi-mode molecular imaging and drug-loading and preparation method and application of nano-probe” (Harbin Medical University, priority 2019, dated 2022).

C=CC(=O)Nc1cc(Nc2nccc(-c3cn(C)c4ccccc34)n2)c(OC)cc1N(C)CCN(C)C [AZD9291]
solubility in organic solvents (DMSO and other organic solvents): soluble to Dimethyl Sulfoxide (DMSO) and other organic solvents merely
solubility in water (water): insoluble to water
